The target of one experiment is T1, human TLR8 (Homo sapiens, UniProt Q9NR97).
T1 construct: host or cells: HEK293 (HEK-Blue hTLR8)
T1 sequence (Q9NR97 27-1041): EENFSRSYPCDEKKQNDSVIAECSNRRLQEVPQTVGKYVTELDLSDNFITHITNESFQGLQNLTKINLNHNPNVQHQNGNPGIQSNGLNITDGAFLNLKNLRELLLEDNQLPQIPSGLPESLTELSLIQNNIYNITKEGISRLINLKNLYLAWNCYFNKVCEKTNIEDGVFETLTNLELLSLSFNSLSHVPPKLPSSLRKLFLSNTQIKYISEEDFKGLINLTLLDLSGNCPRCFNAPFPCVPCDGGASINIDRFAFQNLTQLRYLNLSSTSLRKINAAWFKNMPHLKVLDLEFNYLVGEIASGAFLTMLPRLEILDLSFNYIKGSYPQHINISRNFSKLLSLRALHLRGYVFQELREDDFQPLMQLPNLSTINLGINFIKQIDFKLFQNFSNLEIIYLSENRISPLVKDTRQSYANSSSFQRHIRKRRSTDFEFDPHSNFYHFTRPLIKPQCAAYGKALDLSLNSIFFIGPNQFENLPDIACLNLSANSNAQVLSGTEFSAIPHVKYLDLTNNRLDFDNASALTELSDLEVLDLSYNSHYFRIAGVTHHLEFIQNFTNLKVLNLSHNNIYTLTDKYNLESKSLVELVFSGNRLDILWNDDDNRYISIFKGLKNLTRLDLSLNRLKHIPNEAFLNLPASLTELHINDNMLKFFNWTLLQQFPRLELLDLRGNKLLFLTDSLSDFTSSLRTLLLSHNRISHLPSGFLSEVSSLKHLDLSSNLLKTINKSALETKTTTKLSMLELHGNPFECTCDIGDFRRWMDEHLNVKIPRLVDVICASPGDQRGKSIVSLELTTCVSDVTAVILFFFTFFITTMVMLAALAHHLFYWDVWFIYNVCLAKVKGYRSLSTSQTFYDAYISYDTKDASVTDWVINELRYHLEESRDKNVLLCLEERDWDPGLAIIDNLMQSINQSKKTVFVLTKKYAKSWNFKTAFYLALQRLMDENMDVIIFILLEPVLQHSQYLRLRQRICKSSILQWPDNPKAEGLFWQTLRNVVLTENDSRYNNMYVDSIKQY
Kind of experiment: HEK-Blue hTLR8 reporter cell assay (SEAP, NF-kB/AP-1) for stimulation of human TLR8. The experiment is classed as cell-based. To be noted: HEK-Blue hTLR8 cells; for pEC50: 24 h incubation, SEAP readout, read-out: TLR8_EC50; for activation at 20 µM: 24 h, at 20000 nM. Here is the method: (§1) The below tests, involving measuring the in vitro activity of some compounds of the disclosure on TLR7 and TLR8, were carried out using the HEK-Blue™ cells as reporter.
(§2) In Vitro Assay for Studying the Stimulation of Human TLR7 and TLR8:
HEK-Blue™ hTLR7 Cells (#hkb-htlr7) and HEK-Blue™ hTLR8 Cells (#hkb-htlr8) from InvivoGen were used according to the manufacturer's instructions. These Reporter HEK293 cells were obtained by co-transfection of the hTLR7 or TLR8 gene and an optimized Secreted Embryonic Alkaline Phosphatase (SEAP) reporter gene which is placed under the control of the IFN-β minimal promoter fused to five NF-κB and AP-1-binding sites. Stimulation with a TLR7/8 ligand activates NF-kB and AP-1 which induce the production of SEAP. The cells are seeded in 96-well plate at 3.10E4 cells/well and incubated 18 to 24 h at 37° C., 5% CO2 before adding the compounds to evaluate. […] Next, 20 μL of the supernatant is harvested and incubated with 200 μL of QUANTI-Blue™ Solution.

In another experiment the target is T2, human TLR7 (Homo sapiens, UniProt Q9NYK1).
T2 construct: host or cells: HEK293 (HEK-Blue hTLR7)
T2 sequence (Q9NYK1 27-1049): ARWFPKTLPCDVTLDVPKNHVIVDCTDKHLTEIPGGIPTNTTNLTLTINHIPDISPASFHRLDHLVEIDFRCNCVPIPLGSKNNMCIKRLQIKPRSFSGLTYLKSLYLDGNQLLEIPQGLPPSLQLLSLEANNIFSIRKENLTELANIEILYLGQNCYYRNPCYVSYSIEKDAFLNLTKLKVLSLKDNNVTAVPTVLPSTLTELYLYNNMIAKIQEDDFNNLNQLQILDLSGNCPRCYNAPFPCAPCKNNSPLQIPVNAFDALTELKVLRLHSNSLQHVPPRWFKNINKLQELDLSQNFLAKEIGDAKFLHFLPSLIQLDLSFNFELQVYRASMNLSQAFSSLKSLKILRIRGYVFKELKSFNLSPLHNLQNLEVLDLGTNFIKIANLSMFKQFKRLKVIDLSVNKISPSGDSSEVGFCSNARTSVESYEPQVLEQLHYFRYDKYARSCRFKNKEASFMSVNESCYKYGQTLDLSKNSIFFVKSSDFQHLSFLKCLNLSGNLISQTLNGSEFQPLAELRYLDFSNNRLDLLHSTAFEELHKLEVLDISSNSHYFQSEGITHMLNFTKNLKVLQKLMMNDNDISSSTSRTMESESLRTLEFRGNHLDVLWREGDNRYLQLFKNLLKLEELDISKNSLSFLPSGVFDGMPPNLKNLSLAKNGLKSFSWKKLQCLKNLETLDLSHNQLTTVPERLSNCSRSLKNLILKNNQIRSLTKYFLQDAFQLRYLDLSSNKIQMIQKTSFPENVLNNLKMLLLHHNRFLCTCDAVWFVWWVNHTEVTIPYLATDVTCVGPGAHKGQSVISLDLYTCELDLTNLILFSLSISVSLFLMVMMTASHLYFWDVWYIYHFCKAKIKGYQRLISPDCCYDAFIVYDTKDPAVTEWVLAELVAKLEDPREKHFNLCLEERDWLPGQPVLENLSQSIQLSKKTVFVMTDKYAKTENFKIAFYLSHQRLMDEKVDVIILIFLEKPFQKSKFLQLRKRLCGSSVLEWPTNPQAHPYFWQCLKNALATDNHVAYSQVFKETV
Put plainly: HEK-Blue hTLR7 reporter cell assay (SEAP, NF-kB/AP-1) for stimulation of human TLR7. The experiment is classed as cell-based. To be noted: HEK-Blue hTLR7 cells; for pEC50: 24 h incubation, SEAP readout, read-out: TLR7_EC50; for activation at 20 µM: 24 h, at 20000 nM. As to the method:
as §1
The activity described below, with respect to TLR7, TLR8, IFN-α2a, IL-6, IL29 and TNF-α, is given by the half maximal effective concentration (EC50), which corresponds to the concentration required to obtain a 50% of the activation. The lower the EC50, the less the concentration of the compound is required to produce 50% of maximum activation and the higher the potency.
as §2
HEK-Blue™ hTLR7 Cells (#hkb-htlr7) and HEK-Blue™ hTLR8 Cells (#hkb-htlr8) from InvivoGen were used according to the manufacturer's instructions. These Reporter HEK293 cells were obtained by co-transfection of the hTLR7 or TLR8 gene and an optimized Secreted Embryonic Alkaline Phosphatase (SEAP) reporter gene which is placed under the control of the IFN-β minimal promoter fused to five NF-κB and AP-1-binding sites. Stimulation with a TLR7/8 ligand activates NF-kB and AP-1 which induce the production of SEAP. The cells are seeded in 96-well plate at 3.10E4 cells/well and incubated 18 to 24 h at 37° C., 5% CO2 before adding the compounds to evaluate. The cells are subsequently incubated with 3-fold serial dilutions of each of the compounds (0.01 to 20 μM) for 24 hours at 37° C., 5% CO2. Next, 20 μL of the supernatant is harvested and incubated with 200 μL of QUANTI-Blue™ Solution.

pEC50: −log10 of the molar value. Counter-ions that a name gives are not always drawn. Some results are limits rather than exact numbers.

`CCCCc1nc2c(N)nnc(OC(C)C)c2n1Cc1ccc(CNC2CC2)cc1` [Compound 36, 2-butyl-1-(4-((cyclopropylamino)methyl)benzyl)-7-isopropoxy-1H-imidazo[4,5-d]pyridazin-4-amine]: the pEC50 at human TLR8 is 6.35; at human TLR7, 7.72.
`CCCCc1nc2c(N)nnc(OC(C)C)c2n1CCCCCCNC1CCOCC1` [Compound 147, 2-butyl-4-isopropoxy-3-[6-(tetrahydropyran-4-ylamino)hexyl]imidazo[4,5-d]pyridazin-7-amine; dihydrochloride]: the pEC50 on human TLR8 was 5.11; at human TLR7, 7.69.
On the same counts, the results for `CCCCc1nc2c(N)nnc(-c3ccc[nH]3)c2n1Cc1ccc(OC)cc1` [Compound 64, 2-butyl-1-(4-methoxybenzyl)-7-(1H-pyrrol-2-yl)-1H-imidazo[4,5-d]pyridazin-4-amine hydrochloride] are less than 4.70 and 5.51.
Turning to `CCCCc1nc2c(N)nnc(SC(C)C)c2[nH]1` [Compound 99, 2-butyl-7-(isopropylthio)-1H-imidazo[4,5-d]pyridazin-4-amine], on human TLR8, the activation at 20 µM was found to be 18%. Also, the pEC50 on human TLR7 was 4.87.
In the case of `CCCCc1nc2c(N)nnc(OC(C)C)c2n1Cc1cccc(CNC2(C)CCC2)c1` [Compound 130, 2-butyl-7-isopropoxy-1-(3-(((1-methylcyclobutyl)amino)methyl)benzyl)-1H-imidazo[4,5-d]pyridazin-4-amine dihydrochloride salt], the pEC50 at human TLR8 was 5.98; at human TLR7 it was 7.12.
For the molecule `CCCCc1nc2c(N)nnc(OC(C)C)c2n1Cc1ccc(CNCCOCCOCCOCCOCCOCCOCCOCCOCCOCCOCCOCCOC)cc1` [Compound 123, 2-butyl-4-isopropoxy-3-[[4-[[2-[2-[2-[2-[2-[2-[2-[2-[2-[2-[2-(2-methoxyethoxy)ethoxy]ethoxy]ethoxy]ethoxy]ethoxy]ethoxy]ethoxy]ethoxy]ethoxy]ethoxy]ethylamino]methyl]phenyl]methyl]imidazo[4,5-d]pyridazin-7-amine di2,2,2-trifluoroacetate], the activation at 20 µM was determined as 10.2% on human TLR8 and 13.5% on human TLR7.
Consider `CCCCc1nc2c(N)nnc(N(C)Cc3ccc(CN4CCOCC4)cc3)c2n1C` [Compound 44, 2-butyl-N7,1-dimethyl-N7-(4-(morpholinomethyl)benzyl)-1H-imidazo[4,5-d]pyridazine-4,7-diamine], for which the pEC50 on human TLR8 is 6.33; at human TLR7 it was 5.95.
The like results for `CCCCc1nc2c(N)nnc(C3CCOC3)c2n1Cc1ccc(OC)cc1` (stereo not drawn) [Compound 59, 2-butyl-1-(4-methoxybenzyl)-7-(tetrahydrofuran-3-yl)-1H-imidazo[4,5-d]pyridazin-4-amine] were, in that order, less than 4.70 and 6.03.
For `CCCCc1nc2c(N)nnc(OC(C)C)c2n1Cc1cccc(CNC2CCC2)c1` [Compound 126, 2-butyl-1-(3-((cyclobutylamino)methyl)benzyl)-7-isopropoxy-1H-imidazo[4,5-d]pyridazin-4-amine dihydrochloride salt], the pEC50 at human TLR8 is 6.42; at human TLR7, 6.91.
Take `CCCCc1nc2c(N)nnc(OC(C)C)c2n1Cc1ccc(CNC(C)=O)cc1` [Compound 28, N-(4-((4-amino-2-butyl-7-isopropoxy-1H-imidazo[4,5c]pyridazin-1-yl)methyl)benzyl)acetamide]: the pEC50 at human TLR8 is less than 4.70; at human TLR7 it was 7.07.
On the same counts, the results for `CCCCc1nc2c(N)nnc(OC(C)C)c2n1C[C@H]1CC[C@H](CN)CC1` [Compound 19, 4-(aminomethyl)cyclohexyl)methyl)-2-butyl-7-isopropoxy-1H-imidazo[4,5-d]pyridazin-4-amine dihydrochloride] are less than 4.70 and 7.49.
On the same counts, the results for `CCCCc1nc2c(N)nnc(OC(C)C)c2n1CCC1CCNCC1` [Compound 78, 2-butyl-7-isopropoxy-1-(2-(piperidin-4-yl)ethyl)-1H-imidazo[4,5-d]pyridazin-4-amine] are less than 4.70 and 5.11.
The like results for `CCCCc1nc2c(N)nnc(OC(C)CC)c2n1Cc1ccc(OC)cc1` (stereo not drawn) [Compound 7, 7-(sec-butoxy)-2-butyl-1-(4-methoxybenzyl)-1H-imidazo[4,5-d]pyridazin-4-amine] were, in that order, 5.68 and 7.34.
Consider `CCNCc1nc2c(N)nnc(OC(C)C)c2n1Cc1ccc(CN)cc1` [Compound 164, 3-[[4-(aminomethyl)phenyl]methyl]-2-(ethylaminomethyl)-4-isopropoxy-imidazo[4,5-d]pyridazin-7-amine], for which the results for the activation at 20 µM on human TLR8 and at human TLR7 were 10.8% and 4.8%, respectively.
With `CCCCc1nc2c(N)nnc(/C=C/C(C)C)c2n1Cc1ccc(OC)cc1` [Compound 12, (E)-2-butyl-1-(4-methoxybenzyl)-7-(3-methylbut-1-en-1-yl)-1H-imidazo[4,5-d]pyridazin-4-amine], the pEC50 at human TLR8 was less than 4.70; on human TLR7, 6.15.

For the origin of these results see patent US12583861B2, “Derivatives of imidazo[4,5-d]pyridazine, their preparation and their therapeutic application” (SANOFI, priority 2021, dated 2026).
